The values below come from ChEMBL document CHEMBL1147320, “Isolation of a novel tyrosine kinase inhibitor, lavendustin A, from Streptomyces griseolavendus” (J Nat Prod, 1989).

A short description of assay [1]: Inhibition of protein kinase C.
Assay [2] deals with Epidermal growth factor receptor (Mus musculus, UniProt Q01279). Nature of the assay: Inhibition of mouse EGFR by liquid scintillation counting.
Assay [3] in a line: Inhibition of protein kinase A.
Assay [4] in a line: Cytotoxicity against mouse NIH/3T3 cells. To be noted: NIH3T3. Type of assay: cell-based.
Assay [5] concerns the target Epidermal growth factor receptor (Mus musculus) (UniProt Q01279). Nature of the assay: Inhibition of mouse EGFR using tridecapeptide as substrate by uncompetitive Lineweaver-Burke plot.
The test system of a further assay is A-431. The experiment in a line: Cytotoxicity against human A431 cells. Type of assay: functional, cell-based.
A further assay relates to L1210. The experiment in a line: Cytotoxicity against mouse L1210 cells. In kind it is functional, cell-based.
For assay [6], the target named is Epidermal growth factor receptor (Mus musculus) (UniProt Q01279). The experiment in a line: Inhibition of mouse EGFR using [32P]gammaATP as substrate by competitive Lineweaver-Burke plot.
Another assay has as its system P388. Nature of the assay: Cytotoxicity against mouse P388 cells. Type of assay: functional, cell-based.
Assay [7] is described as follows: Inhibition of phosphatidylinositol kinase.
Another assay deals with NIH3T3. The experiment in a line: Cytotoxicity against RSV transformed mouse NIH/3T3 cells. In kind it is functional, cell-based.
Assay [8] concerns the target Epidermal growth factor receptor (Homo sapiens, UniProt P00533).

Structures are written as SMILES. ≈ marks a conversion by molar mass, not a printed value. Calls of active or inactive are those of the source. The calls are words filed in the database; no cut-off is given here. Where only a bound is given, the exact number is not on record here.

Epidermal growth factor receptor (Mus musculus, UniProt Q01279), sequence (Q01279 whole entry): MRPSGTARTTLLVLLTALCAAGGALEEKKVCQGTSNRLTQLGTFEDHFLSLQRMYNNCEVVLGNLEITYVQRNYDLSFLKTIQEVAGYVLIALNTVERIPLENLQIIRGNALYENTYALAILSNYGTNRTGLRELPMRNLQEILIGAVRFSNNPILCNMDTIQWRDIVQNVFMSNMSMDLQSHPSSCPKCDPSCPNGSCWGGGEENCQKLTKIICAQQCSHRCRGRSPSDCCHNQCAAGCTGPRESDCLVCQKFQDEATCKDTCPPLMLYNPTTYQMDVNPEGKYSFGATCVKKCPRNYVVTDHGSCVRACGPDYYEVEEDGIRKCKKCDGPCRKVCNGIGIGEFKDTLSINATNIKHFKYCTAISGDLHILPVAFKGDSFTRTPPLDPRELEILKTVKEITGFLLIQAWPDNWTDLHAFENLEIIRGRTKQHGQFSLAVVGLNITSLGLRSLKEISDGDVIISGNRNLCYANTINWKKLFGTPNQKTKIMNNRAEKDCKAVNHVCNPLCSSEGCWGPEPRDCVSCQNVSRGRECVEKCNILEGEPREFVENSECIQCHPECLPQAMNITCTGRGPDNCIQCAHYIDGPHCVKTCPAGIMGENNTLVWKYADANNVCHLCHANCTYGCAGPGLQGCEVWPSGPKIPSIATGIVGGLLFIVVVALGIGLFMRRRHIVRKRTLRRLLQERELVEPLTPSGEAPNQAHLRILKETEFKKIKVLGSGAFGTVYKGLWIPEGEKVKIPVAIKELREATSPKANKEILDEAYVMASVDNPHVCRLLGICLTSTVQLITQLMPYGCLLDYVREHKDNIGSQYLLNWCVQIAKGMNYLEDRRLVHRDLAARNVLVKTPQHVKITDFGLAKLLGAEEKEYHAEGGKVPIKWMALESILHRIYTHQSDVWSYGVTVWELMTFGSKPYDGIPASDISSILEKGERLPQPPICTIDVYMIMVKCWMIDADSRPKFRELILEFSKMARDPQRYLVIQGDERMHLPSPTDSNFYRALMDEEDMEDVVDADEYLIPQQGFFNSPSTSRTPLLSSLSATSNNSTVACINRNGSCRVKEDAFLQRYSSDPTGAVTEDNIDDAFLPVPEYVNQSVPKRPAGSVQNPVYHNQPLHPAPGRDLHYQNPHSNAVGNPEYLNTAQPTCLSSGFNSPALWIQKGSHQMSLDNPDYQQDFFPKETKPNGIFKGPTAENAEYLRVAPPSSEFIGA
Epidermal growth factor receptor (Mus musculus), sequence (Q01279 whole entry): as above
Epidermal growth factor receptor (Homo sapiens, UniProt P00533), sequence (P00533 whole entry): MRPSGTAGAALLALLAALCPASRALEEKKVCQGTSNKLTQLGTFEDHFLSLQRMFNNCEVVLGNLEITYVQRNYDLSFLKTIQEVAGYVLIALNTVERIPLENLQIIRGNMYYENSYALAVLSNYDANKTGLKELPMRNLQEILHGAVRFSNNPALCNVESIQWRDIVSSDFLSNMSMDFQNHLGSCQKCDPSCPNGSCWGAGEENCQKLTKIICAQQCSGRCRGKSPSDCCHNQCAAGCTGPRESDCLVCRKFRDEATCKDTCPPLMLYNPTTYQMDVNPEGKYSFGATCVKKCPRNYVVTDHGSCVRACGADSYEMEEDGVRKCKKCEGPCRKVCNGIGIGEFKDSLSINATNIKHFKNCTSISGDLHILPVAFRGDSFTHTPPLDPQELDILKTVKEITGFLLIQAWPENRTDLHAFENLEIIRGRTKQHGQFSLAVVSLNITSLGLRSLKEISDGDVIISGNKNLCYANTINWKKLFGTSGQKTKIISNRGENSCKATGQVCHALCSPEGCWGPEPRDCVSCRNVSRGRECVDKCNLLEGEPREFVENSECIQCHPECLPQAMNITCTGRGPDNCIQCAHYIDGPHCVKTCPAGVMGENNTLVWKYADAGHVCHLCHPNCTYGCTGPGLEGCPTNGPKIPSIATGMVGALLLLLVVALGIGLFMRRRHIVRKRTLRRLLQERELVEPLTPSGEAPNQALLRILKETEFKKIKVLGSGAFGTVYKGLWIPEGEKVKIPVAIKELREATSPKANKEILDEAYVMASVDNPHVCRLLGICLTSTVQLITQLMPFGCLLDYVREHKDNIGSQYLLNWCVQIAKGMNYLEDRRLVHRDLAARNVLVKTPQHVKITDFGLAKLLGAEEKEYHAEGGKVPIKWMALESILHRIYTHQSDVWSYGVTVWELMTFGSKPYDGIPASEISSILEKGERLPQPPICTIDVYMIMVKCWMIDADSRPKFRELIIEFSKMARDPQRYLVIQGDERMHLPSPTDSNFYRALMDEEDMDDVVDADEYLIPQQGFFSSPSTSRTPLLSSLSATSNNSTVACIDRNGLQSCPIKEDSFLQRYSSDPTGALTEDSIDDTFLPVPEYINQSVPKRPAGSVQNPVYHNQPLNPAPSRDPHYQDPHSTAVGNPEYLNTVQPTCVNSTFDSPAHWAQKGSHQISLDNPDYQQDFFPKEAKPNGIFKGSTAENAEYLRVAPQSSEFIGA

The IC50 is the midpoint of a concentration-inhibition curve. For the compound `O=C(O)c1cc(N(Cc2ccccc2O)Cc2cc(O)ccc2O)ccc1O` [LAVENDUSTIN A], the concentration for half-maximal inhibition (IC50) is above 100 µg/mL in assay [1]; 11.5 nM in [2]; above 100 µg/mL in assay [3]; 22 µg/mL (≈ 57.7 µM) in assay [4]; 26 µg/mL (≈ 68.2 µM) in the assay on A-431; 28 µg/mL (≈ 73.4 µM) in the assay on L1210. Also, the IC50 turned out to be 21.5 µg/mL (≈ 56.4 µM) in the assay with P388, 6.4 µg/mL (≈ 16.8 µM) in assay [7] and 19.5 µg/mL (≈ 51.1 µM) in the assay on NIH3T3. Also, the outcome in [5] and in assay [6] was Active.
The compound `O=C(O)c1cc(N(Cc2cc(O)ccc2O)Cc2cc(O)ccc2O)ccc1O` showed an IC50 in assay [2] of 27.7 nM. This lies in the double-digit nanomolar range.
As for `O=CN/C=C/c1cc(O)ccc1O` [ERBSTATIN], the concentration for half-maximal inhibition (IC50) in assay [1] was above 179 µg/mL; in assay [2], 1120 nM; in assay [8], 1120 nM; in assay [3], 100 µg/mL (≈ 558 µM); in assay [7], 25 µg/mL (≈ 140 µM).
As for `O=Cc1cc(O)ccc1O`, in assay [2], the IC50 is 239000 nM.
The compound `Nc1ccc(O)c(C(=O)O)c1` [MESALAMINE] gave an IC50 in assay [2] of 17600 nM.
On the same count and under the same terms, the result for `O=C(O)c1cc(N(Cc2ccccc2O)Cc2ccccc2O)ccc1O` [LAVENDUSTIN B] reads 1340 nM; that for `O=C(O)c1ccc(O)c(N(Cc2ccccc2O)Cc2cc(O)ccc2O)c1`, 446 nM.
Still for that read-out and setting: the result for `Nc1cc(C(=O)O)ccc1O` reads above 653000 nM; that for `O=C(O)c1cc(/N=C\c2cc(O)ccc2O)ccc1O`, 2780 nM.
